Data from ChEMBL document CHEMBL4706768, “Discovery of Potent, Selective Triazolothiadiazole-Containing c-Met Inhibitors” (ACS Med Chem Lett, 2021).

Experiments:
[1] = molecular target: Proto-oncogene tyrosine-protein kinase Src (Homo sapiens, UniProt P12931); assay: Inhibition of SRC (unknown origin)
[2] = molecular target: Mitogen-activated protein kinase 8 (Homo sapiens) (UniProt P45983); assay: Inhibition of recombinant human full-length N-terminal His-tagged JNK1alpha1 ([…]) expressed in Sf21 insect cells at 2 uM using ATF2 (19 to 96 residues) as substrate relative to control
[3] = molecular target: Serine/threonine-protein kinase PAK 2 (Homo sapiens) (UniProt Q13177); assay: Inhibition of recombinant human N-terminal/C-terminal His6-tagged full-length PAK2 (3 to end residues) expressed in Escherichia coli at 2 uM using long S6 Kinase peptide as substrate relative to control
[4] = molecular target: Angiopoietin-1 receptor (Homo sapiens) (UniProt Q02763); assay: Inhibition of recombinant human N-terminal His6-tagged TIE2 (771 to end residues) expressed in baculovirus infected Sf21 insect cells at 2 uM using poly (Glu4-Tyr) (4:1) as substrate relative to control
[5] = molecular target: Dual specificity mitogen-activated protein kinase kinase 7 (Homo sapiens) (UniProt O14733); assay: Inhibition of recombinant human N-terminal GST-tagged MKK7beta1 (2 to end residues) expressed in Escherichia coli at 2 uM using JNK1alpha1/SAPK1c as substrate relative to control
[6] = molecular target: Rho-associated protein kinase 2 (Homo sapiens) (UniProt O75116); assay: Inhibition of recombinant human N-terminal GST-tagged ROCK2 (5 to 554 residues) expressed in baculovirus infected Spodoptera frugiperda insect cells at 2 uM using KRRRLASLR as substrate relative to control
[7] = molecular target: Inhibitor of nuclear factor kappa-B kinase subunit alpha (Homo sapiens) (UniProt O15111); assay: Inhibition of IKKa (unknown origin) at 2 uM relative to control
[8] = Inhibition of GSK3 (unknown origin); design: species or system Homo sapiens
[9] = molecular target: Tyrosine-protein kinase JAK2 (Homo sapiens, UniProt O60674); assay: Inhibition of JAK2 (unknown origin)
[10] = molecular target: High affinity nerve growth factor receptor (Homo sapiens) (UniProt P04629); assay: Inhibition of recombinant human N-terminal His6-tagged TRKA (440 to end residues) expressed in baculovirus infected Sf21 insect cells at 2 uM using KKKSPGEYVNIEFG as substrate relative to control
[11] = molecular target: Ribosomal protein S6 kinase alpha-2 (Homo sapiens) (UniProt Q15349); assay: Inhibition of recombinant human N-terminal full-length His6-tagged RSK3 ([…]) expressed in Sf21 insect cells at 2 uM using MAPKAP Kinase 2 as substrate relative to control
[12] = molecular target: MAP kinase-activated protein kinase 5 (Homo sapiens) (UniProt Q8IW41); assay: Inhibition of recombinant human N-terminal His6-tagged full-length PRAK expressed in baculovirus infected Sf21 insect cells at 2 uM using PRAK substrate peptide relative to control
[13] = Unbound intrinsic clearance in mouse hepatocytes assessed per million cells; assay type: ADME, cell-based, Hepatocyte
[14] = molecular target: Serine/threonine-protein kinase Chk1 (Homo sapiens) (UniProt O14757); assay: Inhibition of recombinant human N-terminal GST-tagged full-length CHK1 expressed in Sf21 insect cells at 2 uM using CHKtide as substrate relative to control
[15] = molecular target: Platelet-derived growth factor receptor alpha (Homo sapiens) (UniProt P16234); assay: Inhibition of recombinant human N-terminal His6-tagged PDGFRalpha (550 to end residues) expressed in baculovirus infected Sf21 insect cells at 2 uM using poly (Glu4-Tyr) (4:1) as substrate relative to control
[16] = molecular target: Cyclin-dependent kinase 5/CDK5 activator 1 (Homo sapiens) (UniProt Q00535+Q15078); assay: Inhibition of recombinant N-terminal His6-tagged human full-length CDK5/N-terminal GST-tagged full-length p35 expressed in baculovirus infected Sf21 insect cells at 2 uM using Histone H1 as substrate relative to control
[17] = molecular target: Tyrosine-protein kinase receptor TYRO3 (Homo sapiens, UniProt Q06418); assay: Inhibition of SKY (unknown origin)
[18] = molecular target: Serine/threonine-protein kinase mTOR (Homo sapiens) (UniProt P42345); assay: Inhibition of recombinant human N-terminal FLAG-tagged mTOR (1362 to end residues) at 2 uM relative to control
[19] = molecular target: Dual specificity mitogen-activated protein kinase kinase 6 (Homo sapiens) (UniProt P52564); assay: Inhibition of recombinant human N-terminal MBP-tagged MKK6 (4 to end residues) expressed in Escherichia coli at 2 uM using p38alpha/SAPK2a.as substrate relative to control
[20] = molecular target: Insulin receptor-related protein (Homo sapiens) (UniProt P14616); assay: Inhibition of recombinant human N-terminal His6-tagged IRR (944 to 1266 residues) expressed in baculovirus infected Sf21 insect cells at 2 uM using MBP (13-104) as substrate relative to control
[21] = molecular target: cGMP-inhibited 3',5'-cyclic phosphodiesterase 3A (Homo sapiens, UniProt Q14432); assay: Inhibition of recombinant human N-terminal GST/His-tagged PDE3A (669 to 1141 residues) expressed in baculovirus infected Sf9 insect cells using iFL-cAMP as substrate preincubated for 15 mins followed by substrate addition and measured after 40 mins by fluorescence assay
[22] = molecular target: Ribosomal protein S6 kinase alpha-5 (Homo sapiens) (UniProt O75582); assay: Inhibition of recombinant human N-terminal His6-tagged MSK1 (2 to end residues) expressed in baculovirus infected Sf21 insect cells at 2 uM using Crosstide as substrate relative to control
[23] = Unbound intrinsic clearance in human hepatocytes assessed per million cells; assay type: ADME, cell-based, Hepatocyte
[24] = molecular target: Tyrosine-protein kinase Fyn (Homo sapiens) (UniProt P06241); assay: Inhibition of recombinant human N-terminal His6-tagged full-length FYN expressed in baculovirus infected Sf21 insect cells at 2 uM using Src peptide as substrate relative to control
[25] = molecular target: Serine/threonine-protein kinase 3 (Homo sapiens) (UniProt Q13188); assay: Inhibition of recombinant human N-terminal His6-tagged MST2 (2 to end residues) expressed in baculovirus infected Sf21 insect cells at 2 uM using MBP as substrate relative to control
[26] = molecular target: Receptor-type tyrosine-protein kinase FLT3 (Homo sapiens, UniProt P36888); assay: Inhibition of FLT3 (unknown origin)
[27] = molecular target: Vascular endothelial growth factor receptor 1 (Homo sapiens) (UniProt P17948); assay: Inhibition of recombinant human N-terminal GST-tagged FLT1 (783 to end residues) expressed in baculovirus infected Sf21 insect cells at 2 uM using KKKSPGEYVNIEFG as substrate relative to control
[28] = molecular target: Insulin-like growth factor 1 receptor (Homo sapiens) (UniProt P08069); assay: Inhibition of recombinant human N-terminal His6-tagged IGF1R (959 to end residues) expressed in baculovirus infected Sf21 insect cells at 2 uM relative to control
Homo sapiens = species: Homo sapiens; assay: Selectivity ratio of IC50 for inhibition of recombinant human N-terminal GST/His-tagged PDE3A (669 to 1141 residues) expressed in baculovirus infected Sf9 insect cells to IC50 for inhibition of c-MET in human SNU-5 cells

Chain of Tyrosine-protein kinase JAK2 (O60674 whole entry): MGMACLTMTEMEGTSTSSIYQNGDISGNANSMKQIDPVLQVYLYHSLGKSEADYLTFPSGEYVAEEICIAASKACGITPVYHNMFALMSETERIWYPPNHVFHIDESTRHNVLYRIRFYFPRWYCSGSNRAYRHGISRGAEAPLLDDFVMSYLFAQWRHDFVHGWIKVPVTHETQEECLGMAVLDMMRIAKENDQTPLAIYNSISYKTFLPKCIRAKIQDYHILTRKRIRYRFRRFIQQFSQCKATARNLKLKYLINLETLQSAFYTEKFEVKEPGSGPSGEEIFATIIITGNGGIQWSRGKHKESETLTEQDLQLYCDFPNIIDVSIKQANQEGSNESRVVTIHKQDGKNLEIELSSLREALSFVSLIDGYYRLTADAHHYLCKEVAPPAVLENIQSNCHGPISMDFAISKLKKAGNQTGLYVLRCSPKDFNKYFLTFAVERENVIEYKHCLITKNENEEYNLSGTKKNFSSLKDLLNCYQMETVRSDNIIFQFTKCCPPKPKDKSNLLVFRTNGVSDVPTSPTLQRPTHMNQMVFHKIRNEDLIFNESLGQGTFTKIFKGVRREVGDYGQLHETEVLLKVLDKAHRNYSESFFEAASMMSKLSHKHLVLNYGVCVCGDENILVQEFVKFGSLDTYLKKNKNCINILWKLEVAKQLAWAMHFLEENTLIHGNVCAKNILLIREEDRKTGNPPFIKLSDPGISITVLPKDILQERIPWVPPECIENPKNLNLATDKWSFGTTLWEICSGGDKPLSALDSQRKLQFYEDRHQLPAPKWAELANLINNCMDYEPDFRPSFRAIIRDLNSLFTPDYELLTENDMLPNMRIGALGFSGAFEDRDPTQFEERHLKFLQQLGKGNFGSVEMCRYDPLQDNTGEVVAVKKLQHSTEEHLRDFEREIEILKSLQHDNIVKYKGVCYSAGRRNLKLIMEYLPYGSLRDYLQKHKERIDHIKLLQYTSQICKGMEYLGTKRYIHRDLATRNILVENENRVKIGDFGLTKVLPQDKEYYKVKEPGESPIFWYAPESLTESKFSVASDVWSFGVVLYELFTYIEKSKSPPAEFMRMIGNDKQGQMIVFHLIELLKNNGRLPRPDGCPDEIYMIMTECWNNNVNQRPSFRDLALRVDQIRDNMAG
Chain of cGMP-inhibited 3',5'-cyclic phosphodiesterase 3A (Q14432 whole entry, the tested form may be a part): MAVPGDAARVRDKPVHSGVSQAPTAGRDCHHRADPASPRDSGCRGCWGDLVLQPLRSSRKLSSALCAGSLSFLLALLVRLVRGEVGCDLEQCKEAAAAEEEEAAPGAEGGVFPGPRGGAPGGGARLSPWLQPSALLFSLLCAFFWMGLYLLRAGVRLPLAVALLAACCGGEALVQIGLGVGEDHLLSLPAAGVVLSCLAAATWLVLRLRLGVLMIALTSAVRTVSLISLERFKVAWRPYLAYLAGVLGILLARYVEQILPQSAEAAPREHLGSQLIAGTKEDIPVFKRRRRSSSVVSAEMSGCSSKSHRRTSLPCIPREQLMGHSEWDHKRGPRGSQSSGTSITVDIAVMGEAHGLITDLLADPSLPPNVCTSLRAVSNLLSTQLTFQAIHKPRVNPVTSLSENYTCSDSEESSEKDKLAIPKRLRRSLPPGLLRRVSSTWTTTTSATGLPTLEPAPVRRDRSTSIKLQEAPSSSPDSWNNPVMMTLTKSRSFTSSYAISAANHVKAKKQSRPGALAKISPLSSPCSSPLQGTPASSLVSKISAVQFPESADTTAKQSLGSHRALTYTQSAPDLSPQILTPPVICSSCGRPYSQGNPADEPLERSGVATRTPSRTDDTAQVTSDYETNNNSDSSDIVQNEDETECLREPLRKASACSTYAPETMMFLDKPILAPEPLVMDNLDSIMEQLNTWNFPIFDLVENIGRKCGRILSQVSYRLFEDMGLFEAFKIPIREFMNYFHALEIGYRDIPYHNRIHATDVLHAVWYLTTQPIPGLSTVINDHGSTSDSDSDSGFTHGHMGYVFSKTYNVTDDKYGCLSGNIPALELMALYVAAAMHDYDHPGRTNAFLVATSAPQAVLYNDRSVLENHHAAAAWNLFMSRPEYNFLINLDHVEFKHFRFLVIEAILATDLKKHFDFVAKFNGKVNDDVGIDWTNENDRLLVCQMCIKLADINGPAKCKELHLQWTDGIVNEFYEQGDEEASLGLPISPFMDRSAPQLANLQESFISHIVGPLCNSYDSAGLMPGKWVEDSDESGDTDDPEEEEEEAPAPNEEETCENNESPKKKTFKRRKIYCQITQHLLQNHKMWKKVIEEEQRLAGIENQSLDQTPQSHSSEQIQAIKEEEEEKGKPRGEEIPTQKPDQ
Chain of Tyrosine-protein kinase Fyn (Homo sapiens) (P06241 2-537 limits assumed): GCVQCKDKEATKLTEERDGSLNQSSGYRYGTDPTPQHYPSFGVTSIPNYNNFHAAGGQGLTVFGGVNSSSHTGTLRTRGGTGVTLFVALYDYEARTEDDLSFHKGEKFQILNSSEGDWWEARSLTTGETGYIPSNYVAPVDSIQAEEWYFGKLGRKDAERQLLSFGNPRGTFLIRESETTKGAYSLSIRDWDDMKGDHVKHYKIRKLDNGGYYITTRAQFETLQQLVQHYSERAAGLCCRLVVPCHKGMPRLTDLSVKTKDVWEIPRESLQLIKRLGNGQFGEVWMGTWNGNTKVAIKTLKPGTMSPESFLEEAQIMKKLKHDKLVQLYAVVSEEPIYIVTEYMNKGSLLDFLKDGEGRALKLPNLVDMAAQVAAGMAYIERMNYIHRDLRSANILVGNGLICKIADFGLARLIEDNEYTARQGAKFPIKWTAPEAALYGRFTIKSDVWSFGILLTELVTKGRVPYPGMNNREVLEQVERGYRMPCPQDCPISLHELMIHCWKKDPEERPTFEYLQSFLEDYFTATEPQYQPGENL
Chain of Rho-associated protein kinase 2 (Homo sapiens) (O75116 whole entry, looked up, the tested form may be a part): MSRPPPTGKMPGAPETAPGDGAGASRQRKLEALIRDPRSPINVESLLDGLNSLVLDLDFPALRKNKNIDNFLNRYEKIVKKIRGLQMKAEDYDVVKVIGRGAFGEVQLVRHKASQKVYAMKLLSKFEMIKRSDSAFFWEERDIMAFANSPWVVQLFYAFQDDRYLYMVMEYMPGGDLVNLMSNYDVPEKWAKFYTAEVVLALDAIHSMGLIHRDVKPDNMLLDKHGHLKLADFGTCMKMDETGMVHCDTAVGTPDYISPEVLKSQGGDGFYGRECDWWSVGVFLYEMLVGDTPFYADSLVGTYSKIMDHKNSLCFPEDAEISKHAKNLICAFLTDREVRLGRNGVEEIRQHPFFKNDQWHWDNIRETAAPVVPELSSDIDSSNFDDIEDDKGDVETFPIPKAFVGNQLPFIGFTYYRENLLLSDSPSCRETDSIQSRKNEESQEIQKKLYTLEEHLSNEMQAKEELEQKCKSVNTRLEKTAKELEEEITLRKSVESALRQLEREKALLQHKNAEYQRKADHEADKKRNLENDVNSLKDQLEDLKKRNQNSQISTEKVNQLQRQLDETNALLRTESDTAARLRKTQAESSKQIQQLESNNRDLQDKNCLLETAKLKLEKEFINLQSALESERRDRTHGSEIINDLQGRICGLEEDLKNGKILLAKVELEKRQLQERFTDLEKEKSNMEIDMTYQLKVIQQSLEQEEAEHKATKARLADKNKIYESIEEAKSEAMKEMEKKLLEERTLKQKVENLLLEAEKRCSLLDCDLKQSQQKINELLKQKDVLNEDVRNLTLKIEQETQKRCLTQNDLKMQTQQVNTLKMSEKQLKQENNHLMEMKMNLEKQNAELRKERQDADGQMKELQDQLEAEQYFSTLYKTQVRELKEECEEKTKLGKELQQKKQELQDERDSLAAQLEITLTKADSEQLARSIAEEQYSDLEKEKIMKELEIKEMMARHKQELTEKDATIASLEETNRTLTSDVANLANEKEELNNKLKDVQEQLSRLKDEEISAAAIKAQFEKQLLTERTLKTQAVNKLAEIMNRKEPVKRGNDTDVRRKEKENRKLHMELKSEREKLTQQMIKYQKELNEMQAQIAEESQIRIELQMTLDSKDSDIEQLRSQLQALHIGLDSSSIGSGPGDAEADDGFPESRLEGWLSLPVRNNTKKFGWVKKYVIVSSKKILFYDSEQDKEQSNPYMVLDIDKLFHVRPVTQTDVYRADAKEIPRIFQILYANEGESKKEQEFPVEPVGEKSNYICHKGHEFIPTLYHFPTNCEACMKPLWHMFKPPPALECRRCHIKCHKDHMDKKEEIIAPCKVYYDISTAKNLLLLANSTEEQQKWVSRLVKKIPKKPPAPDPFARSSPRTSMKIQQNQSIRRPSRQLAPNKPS
Chain of Dual specificity mitogen-activated protein kinase kinase 7 (Homo sapiens) (O14733 whole entry, the tested form may be a part): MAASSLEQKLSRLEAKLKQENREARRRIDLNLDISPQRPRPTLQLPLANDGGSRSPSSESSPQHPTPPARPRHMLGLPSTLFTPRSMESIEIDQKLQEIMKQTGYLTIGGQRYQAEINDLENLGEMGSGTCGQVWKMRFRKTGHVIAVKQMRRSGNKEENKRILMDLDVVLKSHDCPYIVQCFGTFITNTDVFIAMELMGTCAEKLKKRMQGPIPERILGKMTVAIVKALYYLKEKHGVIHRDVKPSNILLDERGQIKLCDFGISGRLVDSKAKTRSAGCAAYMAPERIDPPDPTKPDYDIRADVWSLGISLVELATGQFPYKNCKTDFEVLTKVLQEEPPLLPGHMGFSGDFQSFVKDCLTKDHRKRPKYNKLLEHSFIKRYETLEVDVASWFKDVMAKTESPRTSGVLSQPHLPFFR
Chain of Dual specificity mitogen-activated protein kinase kinase 6 (Homo sapiens) (P52564 whole entry, the tested form may be a part): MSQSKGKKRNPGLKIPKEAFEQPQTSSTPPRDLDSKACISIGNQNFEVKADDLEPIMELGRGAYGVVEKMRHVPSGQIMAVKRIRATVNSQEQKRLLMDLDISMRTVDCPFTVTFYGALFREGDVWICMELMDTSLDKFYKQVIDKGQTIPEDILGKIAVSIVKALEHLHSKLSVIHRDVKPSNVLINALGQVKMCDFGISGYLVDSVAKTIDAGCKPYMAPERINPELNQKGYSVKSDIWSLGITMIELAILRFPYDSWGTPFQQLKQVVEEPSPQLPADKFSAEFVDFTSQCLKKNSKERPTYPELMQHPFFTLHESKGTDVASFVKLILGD

In the case of `C[C@@H](c1ccc2ncccc2c1)c1nnc2sc(-c3cnn(C)c3)nn12`, the Ki [1] is reported as over 4 µM, the inhibition [2] is reported as under 50% and the inhibition [3] is reported as under 50%. The inhibition [4] was under 50%, the inhibition [5] was under 50% and the inhibition [6] was under 50%. For the same molecule, the inhibition [7] was under 50%, the Ki [8] was over 4 µM and the Ki [9] was over 4 µM. It also gave an inhibition [10] of under 50%, an inhibition [11] of under 50% and an inhibition [12] of under 50%. For the same molecule, the CL free [13] was 7.2 µL/min, the inhibition [14] was under 50% and the inhibition [15] was under 50%. For the same molecule, the inhibition [16] was under 50%, the Ki [17] was over 4 µM and the inhibition [18] was under 50%. The inhibition [19] was under 50%, the inhibition [20] was under 50% and the IC50 [21] was 0.5 µM. It also gave an inhibition [22] of under 50%, a CL free [23] of 5.1 µL/min and an inhibition [24] of under 50%. It also gave an inhibition [25] of under 50%, a Ki [26] of over 4 µM and an inhibition [27] of under 50%. It also gave an inhibition [28] of under 50% and a Ratio IC50 (Homo sapiens) of 25.
